For one compound, Ki results are on record in paper PMC4305095, “Characterization of Aspergillus aculeatus β-glucosidase 1 accelerating cellulose hydrolysis with Trichoderma cellulase system” (AMB Express, 2015).

This experiment concerns the target T1, rAaBGL1 (Aspergillus aculeatus β-glucosidase 1) (Aspergillus aculeatus, UniProt P48825).
T1 construct: full AaBGL1 gene amplified from A. aculeatus genomic DNA, own signal peptide, no tag mentioned; expressed in Aspergillus oryzae niaD300, released from cell surface
T1 sequence (P48825 20-860): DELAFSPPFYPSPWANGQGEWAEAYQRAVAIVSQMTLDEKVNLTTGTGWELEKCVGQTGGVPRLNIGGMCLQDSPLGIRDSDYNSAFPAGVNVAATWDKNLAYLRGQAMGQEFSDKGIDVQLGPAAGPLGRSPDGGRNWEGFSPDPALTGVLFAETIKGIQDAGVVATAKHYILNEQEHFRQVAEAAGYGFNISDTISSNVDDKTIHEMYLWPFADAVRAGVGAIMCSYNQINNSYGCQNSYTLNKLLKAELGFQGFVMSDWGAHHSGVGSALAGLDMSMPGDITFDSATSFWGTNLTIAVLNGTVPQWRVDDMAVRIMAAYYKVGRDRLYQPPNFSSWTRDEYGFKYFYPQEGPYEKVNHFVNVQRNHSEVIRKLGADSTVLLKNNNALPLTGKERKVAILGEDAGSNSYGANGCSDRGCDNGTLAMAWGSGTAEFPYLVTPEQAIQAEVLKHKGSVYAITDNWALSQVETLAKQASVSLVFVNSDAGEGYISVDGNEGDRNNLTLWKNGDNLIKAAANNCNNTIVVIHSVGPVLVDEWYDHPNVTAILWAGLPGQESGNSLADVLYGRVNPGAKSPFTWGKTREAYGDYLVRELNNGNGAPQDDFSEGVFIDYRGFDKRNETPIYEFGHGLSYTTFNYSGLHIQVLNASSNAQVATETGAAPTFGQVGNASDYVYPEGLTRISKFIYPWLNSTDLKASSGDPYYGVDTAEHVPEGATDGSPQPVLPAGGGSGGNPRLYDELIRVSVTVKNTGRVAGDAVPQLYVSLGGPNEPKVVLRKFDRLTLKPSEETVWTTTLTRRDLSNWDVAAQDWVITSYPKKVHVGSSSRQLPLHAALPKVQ
As to the kind of experiment: pNP-Glc hydrolysis, absorbance […] nm, Dixon plot. Type of experiment: biochemical. Particulars: 0.1-0.4 mM pNP-Glc, 20 mM sodium acetate pH 5.0, 37°C; competitive.

The term Ki denotes the equilibrium dissociation constant of an inhibitor or competing ligand from its target. Low values mean a stronger hold on the target, high ones a looser hold on the target.

Compound `OC[C@H]1OC(O)[C@H](O)[C@@H](O)[C@@H]1O` (stereo partly shown) [glucose] showed an inhibitory constant (Ki) of 9.99 ± 0.94 mM.
